# Measured values as given in patent US8076308B2, “Inhibition of autophagy genes in cancer chemotherapy” (British Columbia Cancer Agency, priority 2005, dated 2011).
# Like-named read-outs stand apart in the source and are kept apart here.
# Experiments:
# MCF-7 cells = test: Detection of autophagy in tamoxifen treated MCF-7 cells (MDC, LC3-GFP, TEM); format: cell-based, human
# Text: Assays for autophagy and cell viability: We used flow cytometry based methods and microscopy to analyze autophagy levels. Cells were stained with MDC and LT-G and first analyzed manually by fluorescence microscopy and then by flow cytometry using a BD® flow cytometer (FACSVANTAGE™ SE, BD, TFL FACS Facility, BCCRC). […] To confirm that these two populations represent a functional difference in autophagy levels, RNA and protein from these FACS sorted cell were subjected to QRT-PCR for the MAP1LC3b gene, a commonly accepted marker for autophagy (16). In addition, the two populations were analyzed by Transmission Electron Microscopy (TEM) for the presence of autophagosomes (9).
# FIG. 8. […] B. MCF-7 cells treated with 10^-6 M tamoxifen. In panels A, B, & D, cells are stained with the autolysosomal marker, MDC, detected as punctate staining (e.g. arrows in B).
# In panels C and D, autophagy is detected by LC3-GFP localization. C. Punctate GFP-LC3 in transient transfected MCF7 cells treated with TAM. […] In panel E-H, TEM analyses indicate that autolysosomes are abundant in tamoxifen treated MCF7 cell sorted MDC (+) populations but not untreated MCF7 cells. Representative image of an untreated MCF7 cell is shown in (E) with a magnified view of the same cell in (G). Panels (F) and (H) show a cell treated with 5 uM tamoxifen (72 hrs).
# [1] = system: FM3A murine breast tumour cells; conditions: literature (10); cited from earlier work
# [2] = system: MCF7 human breast carcinoma cells; conditions: literature (9), cited from earlier work
compound,measurement,setting,value
CC/C(=C(\c1ccccc1)c1ccc(OCCN(C)C)cc1)c1ccccc1 [Tamoxifen],Autolysosomes by TEM,"MCF-7 cells; MCF7 cell treated with 5 uM tamoxifen (72 hrs), versus untreated",Numerous autolysosomes
same,"Induction of autophagy (MDC punctate staining, LC3-GFP localization)","MCF-7 cells; MCF-7 cells, 10^-6 M tamoxifen",induces autophagy
same,Induction of autophagy,[1],induce autophagy
same,Induction of autophagy,[2]; listed as tamoxifen,undergo autophagy
same,Induction of autophagy,[2],induce autophagy
